Where two headings read alike, the source gives them in different places.
Assays:
human IBAT = molecular target: T1, human IBAT (Homo sapiens, UniProt Q12908); test: In vitro assay of compounds that inhibit IBAT-mediated uptake of [14C]-taurocholate (TC) in H14 cells; assay type: cell-based; conditions: [14C]-taurocholate uptake
T1 construct: expressed in transfected cells; host or cells: Baby hamster kidney (BHK) cells, clone H14
T1 sequence (Q12908 1-348): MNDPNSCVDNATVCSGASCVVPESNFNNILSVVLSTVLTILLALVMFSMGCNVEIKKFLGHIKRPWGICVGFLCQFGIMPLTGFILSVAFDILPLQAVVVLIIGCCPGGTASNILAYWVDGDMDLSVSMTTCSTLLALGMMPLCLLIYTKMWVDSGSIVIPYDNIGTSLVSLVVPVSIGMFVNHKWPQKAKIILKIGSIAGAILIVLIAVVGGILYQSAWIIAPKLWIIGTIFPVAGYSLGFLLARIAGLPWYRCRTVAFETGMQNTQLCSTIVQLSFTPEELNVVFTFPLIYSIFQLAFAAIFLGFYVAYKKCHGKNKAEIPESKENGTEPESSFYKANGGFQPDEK
Procedure: In Vitro Assay of Compounds That Inhibit IBAT-Mediated Uptake of [^14C]-Taurocholate (TC) in H14 Cells
Baby hamster kidney cells (BHK) transfected with the cDNA of human IBAT (H14 cells) are seeded at 60,000 cells/well in 96 well Top-Count tissue culture plates for assays run within in 24 hours of seeding, 30,000 cells/well for assays run within 48 hours, and 10,000 cells/well for assays run within 72 hours.
On the day of assay, the cell monolayer is gently washed once with […] assay buffer (Dulbecco's Modified Eaglets medium with 4.5 g/L glucose+0.2% (w/v) fatty acid free bovine serum albumin- (FAF)BSA). To each well 50 ml of a two-fold concentrate of test compound in assay buffer is added along with 50 ml of […] [^14C]-taurocholate in assay buffer (final concentration of […] [^14C]-taurocholate). The cell culture plates are incubated 2 hours at 37° C. prior to gently washing each well twice with […] 4° C. Dulbecco's phosphate-buffered saline (PBS) containing 0.2% (w/v) (FAF)BSA. The wells are then gently washed once with […] 4° C. PBS without (FAF)BSA. To each 200 ml of liquid scintillation counting fluid is added, the plates are heat sealed and shaken for 30 minutes at room temperature prior to measuring the amount of radioactivity in each well on a Packard Top-Count instrument.

[1] = Cholesterol-fed hamsters: fecal weight and fecal bile acid concentration (FBA); assay type: in vivo, hamster; conditions: mean (SEM), 4% cholestyramine or 0.2% Cpd. No. 25
Procedure: Measurement of Fecal Bile Acid Concentration (FBA)
Total fecal output from individually housed hamsters was collected for 24 or 48 hours, dried under a stream of nitrogen, pulverized and weighed. Approximately 0.1 gram was weighed out and extracted into an organic solvent (butanol/water). Following separation and drying, the residue was dissolved in methanol and the amount of bile acid present was measured enzymatically using the 3a-hydroxysteroid steroid dehydrogenase reaction with bile acids to reduce NAD. (Reference: Mashige, F., et al. (1981) Clin. Chem. 27, 1352).

[2] = Rat Alzet minipump model: fecal weight and fecal bile acid concentration (FBA); assay type: in vivo; conditions: 20 MPL/DAY, mean (SEM)
[3] = test system: uptake of [14C]-alanine in H14 cells; test: In vitro assay of compounds that inhibit uptake of [14C]-alanine (H14 cells); assay type: cell-based, hamster; conditions: Mesocricetus auratus

Row | SMILES | IC50 (human IBAT; read-out: Human TC IC50) [nM] | further results
1 | CCCCC1(CCCC)CS(=O)(=O)c2ccc(NC(=O)OCc3ccccc3)cc2[C@@H](c2ccccc2)[C@H]1O [Example 291] | 600 | 
2 | CCCCC1(CC)CS(=O)(=O)c2ccc(N(C)C)cc2C(c2ccc(OCCOCCOCCOc3ccc(C4c5cc(N(C)C)ccc5S(=O)(=O)CC(CC)(CCCC)C4O)cc3)cc2)C1O (stereo not drawn) [Example 1211] | 280 | 
3 | CCCCC1(CCCC)CS(=O)(=O)c2ccc(N(C)C)cc2C(c2ccc(OCCCCBr)c(F)c2)C1O (stereo not drawn) [Example 1270] | 24 | 
4 | CCCCC1(CCCC)CS(=O)(=O)c2ccc(N(C)C)cc2C(c2cccc(OCCOCCOCC[N+](CC)(CCCc3ccccc3)CCCc3ccccc3)c2)C1O (stereo not drawn) [Example 1449] | 52 | 
5 | CCCC[C@]1(CC)CS(=O)(=O)c2cc(OC)ccc2[C@@H](c2ccccc2)[C@H]1O [Example 25, (3a,4b,5b) 3-Butyl-3-ethyl-4-hydroxy-8-methoxy-5-phenyl-2,3,4,5-tetrahydrobenzothiepine-1,1-dioxide] |  | 24 HR. FECAL Wt (G) [1]: 2.4 (0.04) G; 24 HR. FECAL WT [2]: 5.7 (0.4) G
6 | CCCC[C@@]1(CC)CS(=O)(=O)c2cc(OCCOCCOCCOc3ccc4c(c3)S(=O)(=O)C[C@@](CC)(CCCC)[C@@H](O)[C@H]4c3ccccc3)ccc2[C@@H](c2ccccc2)[C@H]1O [Example 137] | 2400 | 
7 | CCCCC1(CCCC)CS(=O)(=O)c2ccc(N(C)C)cc2C(c2ccc(OCCCCCCCCCCOc3ccccc3[N+](C)(C)CC)cc2)C1O (stereo not drawn) [Example 1351] | 440 | 
8 | CCCCC1(CCCC)CS(=O)(=O)c2ccc(N(C)C)cc2C(c2ccccc2)C1O (stereo not drawn) [Example 1450] | 39 | 
9 | CCCCC1(CCCC)CS(=O)(=O)c2ccc(N(C)C)cc2C(c2ccc(OCCOCCOCCOc3ccc(C4c5cc(N(C)C)ccc5S(=O)(=O)CC(CCCC)(CCCC)C4O)cc3)cc2)C1O (stereo not drawn) [Example 1261] | 19 | 
10 | CCCCC1(CCCC)CS(=O)(=O)c2ccc(NCc3ccccc3)cc2[C@@H](c2ccccc2)[C@H]1O [Example 293] | 1900 | 
11 | CCCCC1(CCCC)CS(=O)(=O)c2ccc(N(C)C)cc2C(c2ccc(OCCCCCCCCCCI)cc2)C1O (stereo not drawn) [Example 1269] | 24 | 
12 | CCCCC1(CC)CS(=O)(=O)c2ccccc2C(=C2CCCCC2)C1O (stereo not drawn) [Example 10b, 3-Butyl-3-ethyl-4-hydroxy-5-cyclohexylidine-2,3,4,5-tetraydrobenzothiepine-1,1-dioxide] |  | inhibition at 100 µM [3]: 68.6%; IC50 (human IBAT; read-out: IC50 (In vitro Taurocholate Cell Uptake)): 15000 nM
13 | CCCC[C@]1(CC)CS(=O)(=O)c2ccc(NC(=O)CCCCCCCCCCC(=O)Nc3ccc4c(c3)[C@@H](c3ccccc3)[C@@H](O)[C@](CC)(CCCC)CS4(=O)=O)cc2[C@@H](c2ccccc2)[C@H]1O [Example 101] |  | inhibition at 1 µM ([3]; @ 1.0 μM, read-out: Alanine Uptake Percent Inhibition @ μM): 0%
14 | CCCCC1(CC)CS(=O)(=O)c2ccc(OC)cc2C(c2cccc(F)c2)C1O (stereo not drawn) [Example 279] | 400 | 
15 | CCCCC1(CCCC)CS(=O)(=O)c2ccc(N(C)C)cc2C(c2cccc(NCCCS(=O)(=O)O)c2)C1O (stereo not drawn) [Example 1451] | 14 | 
16 | CCCC[C@]1(CC)CS(=O)(=O)c2cc(OCCOCCOCCOc3ccc4c(c3)S(=O)(=O)C[C@@](CC)(CCCC)[C@H](O)[C@@H]4c3ccccc3)ccc2[C@@H](c2ccccc2)[C@H]1O [Example 135] | 22000 | 
17 | CCCCC1(CCCC)CS(=O)(=O)c2ccc(NC(C)(C)C)cc2C(c2ccc(F)cc2)C1O (stereo not drawn) [Example 1227] | 250 | 
18 | CCCCC1(CCCC)CS(=O)(=O)c2ccc(N(C)C)cc2C(c2ccc(OCCOCC[S+](CC)CC)c(F)c2)C1O (stereo not drawn) [Example 1299] | 12 | 
19 | CCCCC1(CC)CS(=O)(=O)c2ccc(OC)cc2C(c2ccccc2F)C1O (stereo not drawn) [Example 278] | 3000 | 
